One may read the Ki as a dissociation constant, usually derived from enzyme kinetics or from competition with a known ligand. High values mean lower affinity, low ones higher affinity.

Data on 21 compounds can be found in ChEMBL document CHEMBL1144996 (J Med Chem, 2003).

Experiment [1] concerns the target Carbonic anhydrase 1 (Homo sapiens, UniProt P00915).
Experiment [2] has as its target Carbonic anhydrase 2 (Homo sapiens, UniProt P00918).
The target in experiment [3] is Carbonic anhydrase 9 (Homo sapiens, UniProt Q16790).

Sequence of Carbonic anhydrase 1 (P00915 whole entry): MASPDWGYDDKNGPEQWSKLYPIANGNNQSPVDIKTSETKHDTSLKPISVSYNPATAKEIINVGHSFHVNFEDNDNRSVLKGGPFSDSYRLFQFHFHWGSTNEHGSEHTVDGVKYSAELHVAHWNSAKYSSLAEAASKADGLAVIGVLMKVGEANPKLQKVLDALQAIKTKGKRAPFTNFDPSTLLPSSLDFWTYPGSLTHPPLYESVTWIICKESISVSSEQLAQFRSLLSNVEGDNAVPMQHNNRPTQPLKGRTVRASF

In the case of `C[C@]12CC[C@@H]3c4ccc(O)cc4CC[C@H]3[C@@H]1CC[C@@H]2OS(N)(=O)=O`, the inhibitory constant (Ki) in experiment [1] came out at 15 nM; in experiment [2], 13 nM; in experiment [3], 32 nM.

Take `C[C@]12CC[C@@H]3c4ccc(OS(N)(=O)=O)cc4CC[C@H]3[C@@H]1CC[C@@H]2OS(N)(=O)=O`: the inhibition constant Ki in experiment [1] came to 6 nM; in experiment [2], 5 nM; in experiment [3], 58 nM.

Consider `NS(=O)(=O)Oc1ccc([N+](=O)[O-])cc1`, for which the inhibitory constant (Ki) stood at 40 nM in experiment [1], 1.5 nM in experiment [2] and 36 nM in experiment [3].

On to `NS(=O)(=O)Oc1ccc(Cl)cc1`, for which the inhibitory constant (Ki) in experiment [1] is 4.6 nM; in experiment [3], 18 nM.

`N#Cc1ccc(OS(N)(=O)=O)cc1`: the inhibition constant (Ki) in experiment [1] was determined as 480 nM; in experiment [2] it was 149 nM; in experiment [3], 41 nM.

Take `NS(=O)(=O)Oc1ccc(I)cc1`: the inhibition constant (Ki) is 9.5 nM in experiment [1], 3.8 nM in experiment [2] and 23 nM in experiment [3].

For `Cc1ccc(OS(N)(=O)=O)cc1`, the figures for the inhibitory constant (Ki) in experiment [1], in experiment [2] and in experiment [3] were 3.8 nM, 1.9 nM and 59 nM, respectively.

Regarding `NS(=O)(=O)Oc1ccc(Br)cc1`, the Ki was found to be 7.3 nM in experiment [1] and 19 nM in experiment [3].

On to `CC1(C)OCC(C2OC3OC(C)(C)OC3[C@H]2OS(N)(=O)=O)O1` (some centres not stated), for which the results for the Ki in experiment [1], in experiment [2] and in experiment [3] were 278 nM, 15 nM and 39 nM, respectively.

With `NS(=O)(=O)Oc1c(Cl)cc(Cl)cc1Cl`, the values for the inhibitory constant (Ki) in experiment [1], in experiment [2] and in experiment [3] were 454 nM, 138 nM and 37 nM, respectively.

Turning to `NS(=O)(=O)Oc1ccc(-c2ccccc2)cc1`, the Ki in experiment [1] is 113 nM; in experiment [2], 95 nM; in experiment [3] it was 50 nM.

Turning to `NS(=O)(=O)OCCOc1ccc(-n2ccnc2)cc1`, the Ki in experiment [1] was 28 nM; in experiment [2], 23 nM; in experiment [3], 26 nM.

Turning to `CC(=O)Nc1ccc(OS(N)(=O)=O)cc1`, the Ki in experiment [1] came to 37 nM; in experiment [2], 18 nM; in experiment [3], 45 nM.

On to `NS(=O)(=O)Oc1ccc(Oc2ccccc2)cc1`, for which the Ki was determined as 115 nM in experiment [1], 98 nM in experiment [2] and 51 nM in experiment [3].

`CC(C)(C)c1ccc(OS(N)(=O)=O)cc1`: the inhibition constant (Ki) was 43 nM in experiment [1] and 2.9 nM in experiment [2].

With `C[C@]12CCC(OS(N)(=O)=O)CC1=CCC1C2CC[C@]2(C)C(=O)CCC12` (some centres not stated), the inhibition constant (Ki) in experiment [1] came to 31 nM; in experiment [2], 27 nM; in experiment [3] it was 44 nM.

On to `CC1(C)O[C@@H]2[C@H](O1)[C@H]1OC(C)(C)OC1O[C@@H]2COS(N)(=O)=O` (some centres not stated), for which the inhibitory constant (Ki) worked out at 315 nM in experiment [1], 29 nM in experiment [2] and 32 nM in experiment [3].

For `COc1ccc(OS(N)(=O)=O)cc1`, the inhibition constant (Ki) in experiment [1] stood at 33 nM; in experiment [2] it was 1.6 nM; in experiment [3] it was 34 nM.

As for `C[C@]12CC[C@@H]3c4ccc(OS(N)(=O)=O)cc4CC[C@H]3[C@@H]1CCC2=O` [EMATE], in experiment [1], the Ki amounted to 37 nM.

On to `NS(=O)(=O)Oc1ccccc1` [PHENYLSULFAMATE], for which the figures for the Ki in experiment [1] and in experiment [3] were 2.1 nM and 63 nM, respectively.

As for `NS(=O)(=O)Oc1c(Cl)c(Cl)c(Cl)c(Cl)c1Cl` [SULFAMIC ACID PENTACHLOROPHENYL ESTER], the inhibition constant (Ki) in experiment [1] turned out to be 432 nM; in experiment [2] it was 125 nM; in experiment [3], 39 nM.
